ChEMBL document CHEMBL1201862, “PubChem BioAssay data set” (2004)
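Briefly, cells in 96-well plates were exposed to five compound concentrations for 48 h, and endpoints were estimated by linear interpolation. Abbreviation: GI50, concentration required for 50% inhibition of growth.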 The source made the active and inactive calls. Rule as the data show it: active = GI50 up to about 1.1 µM and inactive = higher.

Key:
Assay in all cases: DTP human tumour cell line panel, 48 h
[1] = tested on: MDA-N
[2] = tested on: Hs-578T
[3] = tested on: XF498
[4] = tested on: DMS-114
[5] = tested on: LXFL 529
[6] = tested on: DLD-1
[7] = tested on: HOP-18
[8] = tested on: SNB-78

CC(=O)NNc1nc(C)c(C(/C=C/c2ccc([N+](=O)[O-])cc2)=N/NC(N)=O)s1 was tested. Which GI50 [1] did it give?
Its GI50 is > 100 µM (inactive).

And the GI50 [2]?
Its GI50 is > 100 µM (inactive).

With Nc1cc(CO)cc(Nc2nc3ccc(Cl)cc3c3[nH]c4ccccc4c23)c1 as the compound, how does the GI50 [1] read?
Its GI50 is 6.65 µM (inactive).

And the GI50 [2]?
Its GI50 is 5.43 µM (inactive).

How did the GI50 [1] turn out when Clc1cccc(N/N=N/c2ccc(-c3nc4ccccc4s3)cc2)c1 was run?
The GI50 was 26.4 µM (inactive).

What about the GI50 [2] of the same compound?
The GI50 was > 100 µM (inactive).

What does the source list for CSc1nc(=O)n(CCC#N)nc1SC?
GI50 [1]: 20.4 µM (inactive); GI50 [2]: 27.6 µM (inactive)

For Nc1ccn(CC(CO)CC(c2ccccc2)P(=O)(O)O)c(=O)n1 (centres undefined), which GI50 [3] is on record?
The GI50 was > 100 µM (inactive).

And the GI50 [4]?
Its GI50 is > 100 µM (inactive).

And the GI50 [5]?
The GI50 was > 100 µM (inactive).

What about the GI50 [6] of the same compound?
The GI50 was > 100 µM (inactive).

And the GI50 [7]?
The GI50 was < 0.01 µM (active).

What about the GI50 [8] of the same compound?
Its GI50 is > 100 µM (inactive).

Which GI50 [1] does the source give for Nc1nc(Cl)cc(NC2(CO)CCC2)n1 here?
Its GI50 is > 100 µM (inactive).

What about the GI50 [2] of the same compound?
Its GI50 is > 100 µM (inactive).

With CC1CC(=O)N2CCCNC2=C1C#N (centres undefined) as the compound, how does the GI50 [1] read?
Its GI50 is > 100 µM (inactive).

And the GI50 [2]?
The GI50 was > 100 µM (inactive).

Which results are given for Cc1ccc(S(=O)(=O)NC(CO)C(=O)O)cc1 (centres undefined)?
GI50 [1]: > 100 µM (inactive); GI50 [2]: > 100 µM (inactive)

Which results are given for N#Cc1c(C#N)c(-c2ccccc2)n(Cc2ccccc2)c1N?
GI50 [1]: > 100 µM (inactive); GI50 [2]: 25.6 µM (inactive)

O=C(/C=C/c1ccc(Cl)cc1)Oc1ccc(C=C2CCC/C(=C\c3ccc(OC(=O)/C=C/c4ccc(Cl)cc4)cc3)C2=O)cc1 was tested. Which GI50 [1] did it give?
Its GI50 is > 100 µM (inactive).

And the GI50 [2]?
Its GI50 is > 100 µM (inactive).

CC(=O)OC[C@@]12Cc3ccc(C)c(O)c3[C@]1(C)[C@@H](OC(C)=O)[C@]1(O)[C@H]([C@@H](OC(=O)c3ccccc3)[C@@H](C)[C@H]1OC(C)=O)[C@H]2OC(C)=O was tested. Which GI50 [2] did it give?
Its GI50 is > 50 µM (inactive).

Which results are given for CCOC(=O)C(=O)Nc1c(CC)cccc1C(C)C?
GI50 [3]: > 100 µM (inactive); GI50 [5]: > 100 µM (inactive); GI50 [6]: > 100 µM (inactive); GI50 [8]: > 100 µM (inactive)

With O=C(CSCC(=O)N/N=C/c1ccncc1)N/N=C/c1ccncc1 as the compound, how does the GI50 [2] read?
The GI50 was > 100 µM (inactive).

Which results are given for Cc1ccc(C2C(Cl)C(=O)N2NC(=O)c2ccc(N)cc2)cc1 (centres undefined)?
GI50 [3]: 13.3 µM (inactive); GI50 [4]: 10.2 µM (inactive); GI50 [5]: 15.5 µM (inactive); GI50 [6]: 20.5 µM (inactive); GI50 [8]: 5.46 µM (inactive)

CC(=O)Nc1c(S(=O)(=O)c2ccccc2)c(C)c(C)n1CCN(C)C was tested. Which GI50 [1] did it give?
Its GI50 is > 100 µM (inactive).

What about the GI50 [2] of the same compound?
Its GI50 is > 100 µM (inactive).

How did the GI50 [1] turn out when COc1cc(OCCN(C)C)c2[nH]c(C(=O)N3CC(CCl)c4ccc(N)cc43)cc2c1 (centres undefined) was run?
The GI50 was 0.0643 µM (active).

And the GI50 [2]?
The GI50 was 0.361 µM (active).

What does the source list for O=C(NNC(=O)c1ccncc1)c1ccncc1?
GI50 [1]: > 100 µM (inactive); GI50 [2]: > 100 µM (inactive)

Which GI50 [1] does the source give for Cc1ccc(S(=O)(=O)N2CCSCCSCCN(S(=O)(=O)c3ccc(C)cc3)CCN(S(=O)(=O)c3ccc(C)cc3)CC2)cc1 here?
Its GI50 is > 100 µM (inactive).

What about the GI50 [2] of the same compound?
Its GI50 is > 100 µM (inactive).

How did the GI50 [2] turn out when COc1ccc(/C=C2/CSCC3=C2N=C(S)NC3c2ccc(OC)c(OC)c2OC)c(OC)c1OC (centres undefined) was run?
The GI50 was > 100 µM (inactive).

What does the source list for O=[N+]([O-])c1nccn1COCCF?
GI50 [3]: > 100 µM (inactive); GI50 [4]: > 100 µM (inactive); GI50 [5]: > 100 µM (inactive); GI50 [6]: > 100 µM (inactive); GI50 [8]: > 100 µM (inactive)

COc1ccc(/C=C2\Sc3nnc(CNc4ccc(Cl)cc4)n3N=C2c2cc(F)c(Cl)cc2Cl)cc1OC was tested. Which GI50 [1] did it give?
The GI50 was 24 µM (inactive).

And the GI50 [2]?
The GI50 was 51.2 µM (inactive).

For CC(=O)OC1CC[C@@]2(C)C(=CC[C@@H]3[C@@H]2CC[C@]2(C)C(OC(C)=O)[C@H](n4ccnc4)C[C@@H]32)C1 (some centres undefined), which GI50 [1] is on record?
The GI50 was 21 µM (inactive).

And the GI50 [2]?
Its GI50 is 47 µM (inactive).

N=c1oc2ccc(Cl)cc2cc1C(=O)NC1CCCCC1 was tested. Which GI50 [1] did it give?
The GI50 was 88.5 µM (inactive).

And the GI50 [2]?
Its GI50 is 30.9 µM (inactive).

For COc1c(/C=C/C=O)cc2c(c1OC)OCO2, which GI50 [1] is on record?
Its GI50 is 24.5 µM (inactive).

What about the GI50 [2] of the same compound?
The GI50 was 55.8 µM (inactive).

Which GI50 [1] does the source give for CC(C)C1C(=O)N(c2c(F)c(F)c(F)c(F)c2F)C(=S)N1CC[S+]([O-])c1ccccc1 (centres undefined) here?
Its GI50 is 17.3 µM (inactive).

What about the GI50 [2] of the same compound?
Its GI50 is 30.2 µM (inactive).

For CC1(C)C=Cc2c(cc3oc4ccc5c(c4c(=O)c3c2O)C=CC(C)(C)O5)O1, which GI50 [1] is on record?
The GI50 was > 100 µM (inactive).

What about the GI50 [2] of the same compound?
Its GI50 is > 100 µM (inactive).

What does the source list for CC(C)=CCc1c2c(c(O)c3c(=O)c4c(oc13)-c1ccc(O)cc1OC4C=C(C)C)C=CC(C)(C)O2 (centres undefined)?
GI50 [1]: 13.2 µM (inactive); GI50 [2]: 2.37 µM (inactive)

Which GI50 [1] does the source give for Cn1c(=N)n[n+]([O-])c2ccccc21 here?
The GI50 was 1.66 µM (inactive).

What does the source list for Cc1cc(NS(=O)(=O)c2ccc(Nc3c4ccccc4nc4ccc(C(=O)Nc5ccc(S(N)(=O)=O)cc5)cc34)cc2)no1?
GI50 [1]: > 100 µM (inactive); GI50 [2]: > 100 µM (inactive)

How did the GI50 [1] turn out when CCCSc1cc(Cl)c(C)cc1S(=O)(=O)n1ccnc1OCCCN(C)C was run?
Its GI50 is > 100 µM (inactive).

And the GI50 [2]?
Its GI50 is > 100 µM (inactive).

Which results are given for N#C/C(=C/C=C/c1ccco1)C(N)=O?
GI50 [1]: > 10 µM (inactive); GI50 [2]: > 10 µM (inactive)

COC1C(=O)CCC2(CO2)C1(O)C1(C)OC1CC=C(C)C (centres undefined) was tested. Which GI50 [1] did it give?
Its GI50 is 41 µM (inactive).

And the GI50 [2]?
Its GI50 is 22.1 µM (inactive).

How did the GI50 [2] turn out when CCN(CC)CCOC(NC(C)=O)(c1ccccc1)c1ccccc1 was run?
The GI50 was > 100 µM (inactive).

Which results are given for O=C1CCC[C@H]2O[C@@H](COC(=O)c3ccccc3)C[C@H]2O1?
GI50 [1]: > 100 µM (inactive); GI50 [2]: > 100 µM (inactive)

How did the GI50 [1] turn out when CP(C)(=S)P(C)(C)=S was run?
Its GI50 is > 100 µM (inactive).

And the GI50 [2]?
The GI50 was > 100 µM (inactive).

Which GI50 [3] does the source give for CC(C)OP(=O)(OC(C)C)C1=NN(c2ccc([N+](=O)[O-])cc2)C(P(=O)(OC(C)C)OC(C)C)=NN1c1ccc([N+](=O)[O-])cc1 here?
Its GI50 is 7.98 µM (inactive).

What about the GI50 [4] of the same compound?
Its GI50 is 12.8 µM (inactive).

And the GI50 [5]?
Its GI50 is 22.9 µM (inactive).

And the GI50 [6]?
The GI50 was 5.32 µM (inactive).

And the GI50 [7]?
Its GI50 is > 100 µM (inactive).

Which results are given for C[C@@H]1S[C@H](c2c(Cl)cccc2Cl)N2Cc3ccccc3N=C12?
GI50 [1]: > 100 µM (inactive); GI50 [2]: > 100 µM (inactive)
